According to the supplement of paper PMC5908809:

Columns and labels:
[1] = test system: normal NK cells expanded with K562-aAPC; experiment: percent inhibition of viability; higher = more inhibition; details: 72 h, IL-2 2.5 ng/mL
Description: (§1)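 Drug sensitivity and resistance testing on K562-aAPC-expanded normal NK cells: 5 concentrations (10-fold steps over a 10,000-fold range), 72 h at 37 °C, viability by CellTiter-Glo normalised to DMSO and benzethonium chloride controls; DSS from the fitted curve.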

[2] = test system: DERL-7 (IL-2 2.5 ng/mL); experiment: as above; details: 72 h
[3] = test system: IMC-1 (IL-2 20 ng/mL); experiment: as above; details: 72 h
[4] = test system: KAI3 (IL-2 2.5 ng/mL); experiment: as above; details: 72 h
[5] = test system: KHYG-1 (IL-2 2.5 ng/mL); experiment: as above; details: 72 h
[6] = test system: NK-92 (IL-2 2.5 ng/mL); experiment: as above; details: 72 h
[7] = test system: NK-YS (IL-2 2.5 ng/mL); experiment: as above; details: 72 h
[8] = test system: NKL (IL-2 2.5 ng/mL); experiment: as above; details: 72 h
[9] = test system: SNK-6 (IL-2 2.5 ng/mL); experiment: as above; details: 72 h
[10] = test system: YT (IL-2 2.5 ng/mL); experiment: as above; details: 72 h
[11] = test system: normal primary NK cells, pool 1 (3 donors) (IL-2 2.5 ng/mL); experiment: as above; details: 72 h
[12] = test system: normal primary NK cells, pool 1 (3 donors), resting (IL-2 0 ng/mL); experiment: as above; details: 72 h
[13] = test system: normal primary NK cells, pool 2 (3 donors) (IL-2 2.5 ng/mL); experiment: as above; details: 72 h
[14] = test system: normal primary NK cells, pool 3 (3 donors) (IL-2 2.5 ng/mL); experiment: as above; details: 72 h
[15] = test system: normal NK cells expanded with K562-aAPC; experiment: drug sensitivity score (DSS) (DSS units); higher = more sensitive; extreme values may be limits of the assay; details: 72 h; IL-2 2.5 ng/mL
Description: as §1

[16] = test system: DERL-7 (IL-2 2.5 ng/mL); experiment: as above; details: 72 h
[17] = test system: IMC-1 (IL-2 20 ng/mL); experiment: as above; details: 72 h
[18] = test system: KAI3 (IL-2 2.5 ng/mL); experiment: as above; details: 72 h
[19] = test system: KHYG-1 (IL-2 2.5 ng/mL); experiment: as above; details: 72 h
[20] = test system: NK-92 (IL-2 2.5 ng/mL); experiment: as above; details: 72 h
[21] = test system: NK-YS (IL-2 2.5 ng/mL); experiment: as above; details: 72 h
[22] = test system: NKL (IL-2 2.5 ng/mL); experiment: as above; details: 72 h
[23] = test system: SNK-6 (IL-2 2.5 ng/mL); experiment: as above; details: 72 h
[24] = test system: YT (IL-2 2.5 ng/mL); experiment: as above; details: 72 h
[25] = test system: normal primary NK cells, pool 1 (3 donors) (IL-2 2.5 ng/mL); experiment: as above; details: 72 h
[26] = test system: normal primary NK cells, pool 1 (3 donors), resting (IL-2 0 ng/mL); experiment: as above; details: 72 h
[27] = test system: normal primary NK cells, pool 2 (3 donors) (IL-2 2.5 ng/mL); experiment: as above; details: 72 h
[28] = test system: normal primary NK cells, pool 3 (3 donors) (IL-2 2.5 ng/mL); experiment: as above; details: 72 h

COc1ccc(-c2ccc3ncc4c(c3c2)n(-c2ccc(N3CCNCC3)c(C(F)(F)F)c2)c(=O)n4C)cn1 [NVP-BGT226] (max concentration tested 1000 nM)
percent inhibition of viability [%]
Details	0.1 nM	1 nM	10 nM	100 nM	1000 nM
[1]	-0.83	1.88	18.5	46.3	99.4
[2]	-4.47	7.95	55.7	89	99.7
[3]	-2.15	-4.82	-34.6	55.1	97.2
[4]	-0.77	1.29	25.3	57.2	94.7
[5]	-2.44	1.07	4.41	76.8	95.9
[6]	-5	-4.68	24.6	74.2	96.2
[7]	-4.92	-1.99	27.6	76.4	95.7
[8]	-10.6	-18.4	35.3	51.1	93.4
[9]	8.89	4.85	13.6	64.3	98.2
[10]	-4.65	-0.4	10.2	53.6	74.2
[11]	-4.63	-3.38	9.25	46.3	99
[12]	5.35	-4.97	14.6	59.2	99
[13]	-6.87	0.35	13.2	39	99.7
[14]	-7.84	-7.37	7.07	21.4	98.8

Details	drug sensitivity score
[15]	11.6
[16]	24
[17]	11.9
[18]	14.1
[19]	14.8
[20]	16.7
[21]	17.5
[22]	13.7
[23]	14.1
[24]	11.3
[25]	10.9
[26]	13.2
[27]	9.95
[28]	8.86
